In patent US12459951B2, “Compounds that interact with RAS superfamily proteins for treatment of cancers, inflammatory diseases, rasopathies, and fibrotic disease” (SHY Therapeutics, LLC, priority 2022, dated 2025):
Where two headings read alike, the source gives them in different places.

Key:
[1] = test system: MiaPaca-2 (expressing KRAS G12C mutant); experiment: Proliferation Assay (Cell Viability Assay); type: cell-based; conditions: Homo sapiens, MIA PaCa-2
How it was run: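 MiaPaca-2 cells (KRAS G12C) were grown in DMEM-high glucose with 10% FBS, seeded at 2000–5000 cells/well and cultured overnight. Compounds were added at 10 μM final, or as serial dilutions for IC50, in 0.3% DMSO/10% FBS for 2–4 days at 37 °C, 5% CO2. Viability was measured with CellTiter 96 Aqueous One and % inhibition calculated.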

KRas wild type = experiment: Ras GTP Binding Domain Inhibition Assay (Ras Superfamily Assay); conditions: 20 μM compound; for KRas wild type + SOS: % inh.: with SOS; for KRas wild type: % inh.: without SOS
How it was run: (§1)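 Ni-plate capture of His-tagged protein (10-30 μg/mL, o/n 4° C); cpd 20 μM or dilution series, 1% DMSO, 3 h RT ± Sos 556-1049 last h; 100 nM Cy-labelled GTP 45 min RT; 3× wash; fluorescence read.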

KRas G12D mutant = experiment: as above; conditions: 20 μM compound; for KRas G12D mutant + SOS: % inh.: with SOS; for KRas G12D mutant: % inh.: without SOS
How it was run: as §1

Rac-1 = molecular target: T1, Rac-1 (Homo sapiens, UniProt P63000); experiment: as above; conditions: read-out: Rac-1: % inh.
T1 construct: made in house
How it was run: as §1

[2] = read-out: Proliferation in MiaPaca-2: IC50

IC50 ([1]; Proliferation assay, MiaPaca-2, read-out: MiaPaca-2 IC50 (nM) Pancreatic) [nM]	IC50 [1, 2] [nM]	KRas wild type + SOS: % inh. (KRas wild type)	KRas wild type: % inh. (KRas wild type)	KRas G12D mutant + SOS: % inh. (KRas G12D mutant)	KRas G12D mutant: % inh. (KRas G12D mutant)	inhibition at 20 µM (Rac-1) [%]	Compound
–	< 150	C (C = 50-75% inhibition)	D (D = 76-100% inhibition)	C (C = 50-75% inhibition)	C (C = 50-75% inhibition)	1 to 25	Cc1c(-c2ccn(C)n2)cn2nc(-c3nccn3C)nc(Nc3ncccn3)c12.Cl [Compound 115, 5-Methyl-2-(1-methyl-1H-imidazol-2-yl)-6-(1-methyl-1H-pyrazol-3-yl)-N-(pyrimidin-2-yl)pyrrolo[2,1-f][1,2,4]triazin-4-amine hydrochloride salt]
–	< 150	D (D = 76-100% inhibition)	C (C = 50-75% inhibition)	D (D = 76-100% inhibition)	D (D = 76-100% inhibition)	50 to 75	Cc1c(-c2ccn(C3CC3)n2)cn2nc(-c3nccn3C)nc(Nc3cc(OC(F)(F)F)ccn3)c12 [Compound 138, 6-(1-Cyclopropyl-1H-pyrazol-3-yl)-5-methyl-2-(1-methyl-1H-imidazol-2-yl)-N-(4-(trifluoromethoxy)pyridin-2-yl)pyrrolo[2,1-f][1,2,4]triazin-4-amine]
–	< 150	D (D = 76-100% inhibition)	D (D = 76-100% inhibition)	D (D = 76-100% inhibition)	D (D = 76-100% inhibition)	76 to 100	Cc1c(-c2ccn(C)n2)cn2nc(-c3nccn3C)nc(Nc3cc(OC(F)F)ccn3)c12 [Compound 128, N-(4-(Difluoromethoxy)pyridin-2-yl)-5-methyl-2-(1-methyl-1H-imidazol-2-yl)-6-(1-methyl-1H-pyrazol-3-yl)pyrrolo[2,1-f][1,2,4]triazin-4-amine]

Further lines, the compound ahead of its results:

Compound	IC50 ([1]; Proliferation assay, MiaPaca-2, read-out: MiaPaca-2 IC50 (nM) Pancreatic) [nM]	IC50 [1, 2] [nM]	KRas wild type + SOS: % inh. (KRas wild type)	KRas wild type: % inh. (KRas wild type)	KRas G12D mutant + SOS: % inh. (KRas G12D mutant)	KRas G12D mutant: % inh. (KRas G12D mutant)	inhibition at 20 µM (Rac-1) [%]
Cc1c(-c2ccn(C)n2)cn2nc(-c3nccn3C)nc(Nc3cc4n(n3)CCC4)c12 [Compound 100, N-(5,6-Dihydro-4H-pyrrolo[1,2-b]pyrazol-2-yl)-5-methyl-2-(1-methyl-1H-imidazol-2-yl)-6-(1-methyl-1H-pyrazol-3-yl)pyrrolo[2,1-f][1,2,4]triazin-4-amine]	1 to 10	< 150	D (D = 76-100% inhibition)	D (D = 76-100% inhibition)	D (D = 76-100% inhibition)	D (D = 76-100% inhibition)	76 to 100
CO[C@H]1CC[C@@H](Nc2nc(-c3ccccn3)nn3cc(-c4ccn(C(C)C)n4)c(C)c23)C1 (racemic) [Compound 9, rac 6-(1-Isopropyl-1H-pyrazol-3-yl)-N-((1R,3S)-3-methoxycyclopentyl)-5-methyl-2-(pyridin-2-yl)pyrrolo[2,1-f][1,2,4]triazin-4-amine]	–	> 1000	0 (0 = 0% inhibition)	0 (0 = 0% inhibition)	0 (0 = 0% inhibition)	0 (0 = 0% inhibition)	0
Cc1c(-c2ccn(C)n2)cn2nc(-c3nccn3C)nc(Nc3cc(OC(F)(F)F)ccn3)c12 [Compound 127, 5-Methyl-2-(1-methyl-1H-imidazol-2-yl)-6-(1-methyl-1H-pyrazol-3-yl)-N-(4-(trifluoromethoxy)pyridin-2-yl)pyrrolo[2,1-f][1,2,4]triazin-4-amine]	–	< 150	D (D = 76-100% inhibition)	D (D = 76-100% inhibition)	D (D = 76-100% inhibition)	D (D = 76-100% inhibition)	76 to 100
Cc1c(-c2ccn(C)n2)cn2nc(-c3nccn3C)nc(Cl)c12 [Compound 99, 4-Chloro-5-methyl-2-(1-methyl-1H-imidazol-2-yl)-6-(1-methyl-1H-pyrazol-3-yl)pyrrolo[2,1-f][1,2,4]triazine]	–	> 1000	B (B = 26-49% inhibition)	C (C = 50-75% inhibition)	B (B = 26-49% inhibition)	B (B = 26-49% inhibition)	50 to 75
